Assay results taken from US9410128B2, “Method and compounds for generation of iPSCs” (Sanford-Burnham Medical Research Institute, priority 2011, dated 2016).

Assays:
Format in all cases: cell-based, mouse
Oct4-EGFP MEFs [1] = experiment: Alkaline phosphatase (AP)+ colony formation during reprogramming; settings: molecules applied during reprogramming; data not shown
Method: iPS cells were seeded and cultured on 0.1% gelatin-coated 6-well plates. Four days later, cells were fixed with 4% paraformadehyde (Electron Microscopy Sciences; Cat#15710-S). For immunofluorescence, fixed cells were permeabilized with 0.1% Triton X-100 in PBS and blocked with 5% BSA in PBS. SSEA-1 (R&D; Cat#MAB2155), Sox2 (R&D; Cat#MAB2018), and Nanog (R&D; Cat#AF2729) antibodies were used to detect ES markers. Nuclei were visualized by Hoechst 33342 (Invitrogen) staining. For AP staining, fixed cells were treated with alkaline phosphatase substrate following the manufacturer's instruction (Vector Laboratories; Cat#SK-5100).
All 17 molecules were tested by examining alkaline phosphatase (AP)+ colony formation during reprogramming while these molecules were applied. […] To that end, 6 molecules were picked including nabumetone, 4-hydroxytamoxifen (OHTM), corynanthine, moclobemide, NiSO4, and lectin—for further analysis (FIG. 2A). To evaluate their effect on induction of mature GFP+ iPS cells, OSKM-transduced Oct4-EGFP MEFs were treated four days after transduction with each of these factors separately.

Oct4-EGFP MEFs [2] = experiment: OSKM-induced reprogramming of Oct4-EGFP MEFs to iPS cells, GFP+ colony count
Excerpt: (§1) Oct4-EGFP MEFs were derived from the mouse strain B6; 129S4-Pou5f1^tm2(EGFP)Jae/J (The Jackson Laboratory, Bar Harbor, Me., USA, on the world wide web at jax.org/; stock #008214) following the protocol on the WiCell Research Institute, Madison, Wis., USA, on the world wide web at wicell.org/website. In brief, embryonic day 13.5 (E13.5) embryos were collected from timemated pregnant female mice and then tested for microbial contamination. Oct4-EGFP MEFs were maintained in MEF complete medium (Dulbecco's modified Eagle's medium [For DMEM or culture medium & materials: Gibco Cell Culture, Carlsbad, Calif., USA, on the world wide web at invitrogen.com/gibco] with 10% fetal bovine serum (FBS), nonessential amino acids, L-glutamine, and no sodium pyruvate). Cells passaged fewer than five times were used for induced reprogramming.
Reprogramming was conducted as described in Takahashi et al. (Cell 126: 663-676 (2006)). In brief, 4×10^4 Oct4-EGFP MEF were transduced with pMX retroviruses for ectopic expression of Oct4, Sox2, Klf4, and c-Myc (Addgene). Three days later, cells were fed ES medium (DMEM with 15% ES-screened FBS, nonessential amino acids, L-glutamine, monothioglycerol, and 1000 U/ml leukemia inhibitory factor (LIF)) and the media was changed every other day. Reprogrammed (EGFP+) cells were identified and scored by fluorescence microscopy two to three weeks post transduction, unless otherwise stated. To derive iPSCs, EGFP+ colonies were manually picked under a stereomicroscope (Leica Microsystems). In the case of small molecule treatment, indicated small molecules were applied to reprogramming cells on day four post-transduction and fresh medium was added every other day for at least two weeks or until EGFP+ colonies appeared.
For reprogramming, retrovirus expressing reprogramming factors (Oct4, Sox2, Klf4, and c-Myc) were added and the medium was then changed to complete medium next day. For overexpression of COX2 transgene, retroviruses expressing COX2 were added 1 day after OSKM transduction. siRNAs were introduced at day 5 post-transduction.

Oct4-EGFP MEFs [3] = experiment: OSK (without c-Myc) reprogramming of Oct4-EGFP MEFs, GFP+ colony count
Excerpt: as §1
Reprogramming was conducted as described in Takahashi et al. (Cell 126: 663-676 (2006)). In brief, 4×10^4 Oct4-EGFP MEF were transduced with pMX retroviruses for ectopic expression of Oct4, Sox2, Klf4, and c-Myc (Addgene). […] Reprogrammed (EGFP+) cells were identified and scored by fluorescence microscopy two to three weeks post transduction, unless otherwise stated. […]

Oct4-EGFP MEFs [4] = experiment: OKM (without Sox2) reprogramming of Oct4-EGFP MEFs, GFP+ colony count
Method: Oct4-EGFP MEFs were derived from the mouse strain B6; 129S4-Pou5f1^tm2(EGFP)Jae/J (The Jackson Laboratory, Bar Harbor, Me., USA, on the world wide web at jax.org/; stock #008214) following the protocol on the WiCell Research Institute, Madison, Wis., USA, on the world wide web at wicell.org/website. In brief, embryonic day 13.5 (E13.5) embryos were collected from timemated pregnant female mice and then tested for microbial contamination. […]
Reprogramming was conducted as described in Takahashi et al. (Cell 126: 663-676 (2006)). […] Reprogrammed (EGFP+) cells were identified and scored by fluorescence microscopy two to three weeks post transduction, unless otherwise stated. […]
Oct4-EGFP MEFs were transduced with OKM and treated with pool of 6 molecules, including NiSO4, nabumetone, OHTM, moclobemide, lectin, and corynanthine, at day 4 for at least 10 days. GFP+ colonies were identified and counted as described in FIG. 1 at day 14. […]
Oct4-EGFP MEFs were transduced with OKM and four days later treated with 1.25 uM OHTM at least 10 days. GFP+ colonies were counted as described in FIG. 1 at day 15˜21. […]
Oct4-EGFP MEFs were transduced with OKM and four days later treated with 2.18 uM nabumetone (Nabu) for at least 10 days. GFP+ colonies were counted as described in FIG. 1 at day 17˜21. […]

Sox2 = experiment: Endogenous Sox2 mRNA expression by real time qRT-PCR in OKM-transduced Oct4-EGFP MEFs; settings: OKM-transduced cells, compared with OKM+DMSO (FIG. 3E)
Excerpt: To understand the molecular mechanism underlying OHTM's effect on reprogramming, the question of whether OHTM induces endogenous Sox2 expression was posed. To do so, OHTM or control DMSO was applied to Oct4-EGFP MEF four days after transduction with OKM. Cells were harvested at indicated time points for total RNA isolation and real time qRT-PCR analysis (FIG. 3E). […] However, the direct targets of OHTM to affect Sox2 expression were not clear.
Oct4-EGFP MEFs were transduced with OKM and treated with OHTM four days later. Cells were harvested at indicated days (D) for real time RT-PCR analysis. β actin expression serves as an internal control. Error bars represent standard deviation of 2˜3 independent experiments. * p value <0.05.

COC(=O)[C@H]1[C@H]2C[C@H]3c4[nH]c5ccccc5c4CCN3C[C@@H]2CC[C@@H]1O.Cl [Corynanthine hydrochloride]
effect on AP+ colony formation (Oct4-EGFP MEFs [1]): not showing adverse effect

COc1ccc2c(c1)c(CC(=O)O)c(C)n2C(=O)c1ccc(Cl)cc1 [indomethacin]
effect on iPSC generation (EGFP+ colony number) (Oct4-EGFP MEFs [2]; applied day 4~5 post transduction, scored two weeks post transduction (FIG. 6A)): no effect
effect on iPSC generation (EGFP+ colony number) (Oct4-EGFP MEFs [3]; OSK, applied day 4~5 post transduction, scored two weeks post transduction (FIG. 6B)): no effect

O=C(NCCN1CCOCC1)c1ccc(Cl)cc1 [Moclobemide]
effect on AP+ colony formation (Oct4-EGFP MEFs [1]): not showing adverse effect

4-hydroxytamoxifen [4-hydroxytamoxifen (OHTM)]
effect on OKM-induced reprogramming (Oct4-EGFP MEFs [4]; 1.25 uM, day 15~21, vs OKM+DMSO (FIG. 3C)): significantly improved
induction of endogenous Sox2 mRNA (Sox2; day 12): 220%
induction of endogenous Sox2 mRNA (Sox2; day 16): 400%
effect on AP+ colony formation (Oct4-EGFP MEFs [1]): not showing adverse effect

COc1ccc2cc(CCC(C)=O)ccc2c1 [Nabumetone]
enhancement of reprogramming efficiency (Oct4-EGFP MEFs [2]; in the presence of control siRNA (siNT), compared with DMSO treatment, day 12~14 (FIG. 2C)): more than 6 fold
increase in number of reprogrammed (GFP+) colonies (Oct4-EGFP MEFs [2]; treated four days after transduction, compared with DMSO controls (FIG. 2B)): at least 2.8 fold
enhancement of reprogramming by OSK (Oct4-EGFP MEFs [3]; OSK without c-Myc, treated four days after transduction, day 21, compared with OSK+DMSO (FIG. 3A)): ~2.5 fold
effect on OKM-induced reprogramming (Oct4-EGFP MEFs [4]; 2.18 uM, day 17~21 (FIG. 3D)): significantly improved
effect on AP+ colony formation (Oct4-EGFP MEFs [1]): not showing adverse effect
